pIC50: −log10 of the molar value.
Experiments:
Test in all cases: cells
CTV-1 = format: functional, cell-based; settings: Homo sapiens;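 note: growth inhibition of the cell line, read out with a cell viability assay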
Description: SANGER: Inhibition of human CTV-1 cell growth in a cell viability assay.

DK-MG = format: functional, cell-based, Homo sapiens; settings: Homo sapiens, DK-MG;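 note: growth inhibition of DK-MG cells, read out with a cell viability assay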
Description: SANGER: Inhibition of human DK-MG cell growth in a cell viability assay.

DOK = format: functional, cell-based, Homo sapiens; settings: Homo sapiens, DOK;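 note: cell viability assay read-out, values reflect inhibition of cell growth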
Description: SANGER: Inhibition of human DOK cell growth in a cell viability assay.

G-402 = format: functional, cell-based, Homo sapiens; settings: Homo sapiens, G-402
Description: SANGER: Inhibition of human G-402 cell growth in a cell viability assay.

GCT = format: functional, cell-based, Homo sapiens; settings: Homo sapiens, GCT;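 note: GCT cell line proliferation inhibition, read out with a cell viability assay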
Description: SANGER: Inhibition of human GCT cell growth in a cell viability assay.

H4 = format: functional, cell-based; settings: Homo sapiens
Description: SANGER: Inhibition of human H4 cell growth in a cell viability assay.

HAL-01 = format: functional, cell-based; settings: Homo sapiens;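 note: growth inhibition of human HAL-01 cells, read out with a cell viability assay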
Description: SANGER: Inhibition of human HAL-01 cell growth in a cell viability assay.

HCC1395 = format: functional, cell-based, Homo sapiens; settings: Homo sapiens, HCC1395;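 note: growth inhibition of HCC1395 cells, read out by a cell viability assay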
Description: SANGER: Inhibition of human HCC1395 cell growth in a cell viability assay.

HCC1806 = format: functional, cell-based, Homo sapiens; settings: Homo sapiens, HCC1806;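 note: growth inhibition of the cancer cell line, determined with a cell viability assay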
Description: SANGER: Inhibition of human HCC1806 cell growth in a cell viability assay.

HH = format: functional, cell-based; settings: Homo sapiens
Description: SANGER: Inhibition of human HH cell growth in a cell viability assay.

HuCCT-1 = format: functional, cell-based, Homo sapiens, HuCCT1; settings: Homo sapiens, HuCCT-1;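 note: growth inhibition of HuCCT-1 cells, read out by a cell viability assay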
Description: SANGER: Inhibition of human HuCCT1 cell growth in a cell viability assay.

HuP-T4 = format: functional, cell-based, Homo sapiens; settings: Homo sapiens, HuP-T4;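 note: cell viability assay measuring how much HuP-T4 cell growth is inhibited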
Description: SANGER: Inhibition of human HuP-T4 cell growth in a cell viability assay.

IA-LM = format: functional, cell-based, Homo sapiens; settings: Homo sapiens, IA-LM;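 note: cell viability assay measuring growth inhibition of human IA-LM cells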
Description: SANGER: Inhibition of human IA-LM cell growth in a cell viability assay.

IST-SL1 = format: functional, cell-based, Homo sapiens; settings: Homo sapiens, IST-SL1;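 note: growth inhibition of human IST-SL1 cells, read out with a cell viability assay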
Description: SANGER: Inhibition of human IST-SL1 cell growth in a cell viability assay.

JAR = format: functional, cell-based, Homo sapiens; settings: Homo sapiens, JAR;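 note: growth inhibition of human JAR cells determined with a cell viability assay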
KARPAS-299 = format: functional, cell-based; settings: Homo sapiens
Description: SANGER: Inhibition of human KARPAS-299 cell growth in a cell viability assay.

KM-H2 = format: functional, cell-based; settings: Homo sapiens;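 note: growth inhibition of KM-H2 cells, read out by a cell viability assay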
Description: SANGER: Inhibition of human KM-H2 cell growth in a cell viability assay.

KM12 = format: functional, cell-based, Homo sapiens; settings: Homo sapiens, KM12;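 note: KM12 cell growth inhibition, read out with a cell viability assay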
Description: SANGER: Inhibition of human KM12 cell growth in a cell viability assay.

KOSC-2 = format: functional, cell-based, Homo sapiens; settings: Homo sapiens, KOSC-2;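 note: growth inhibition of KOSC-2 cells, read out by a cell viability assay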
KS-1 = format: functional, cell-based, Homo sapiens; settings: Homo sapiens, KS-1;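 note: growth inhibition of KS-1 cells, read out with a cell viability assay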
Description: SANGER: Inhibition of human KS-1 cell growth in a cell viability assay.

KU812 cell line = format: functional, cell-based; settings: Homo sapiens;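 note: growth inhibition of KU812 cells, read out with a cell viability assay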
Description: SANGER: Inhibition of human KU812 cell growth in a cell viability assay.

LAMA-84 = format: functional, cell-based; settings: Homo sapiens;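 note: growth inhibition of LAMA-84 cells, read out with a cell viability assay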
Description: SANGER: Inhibition of human LAMA-84 cell growth in a cell viability assay.

LS-411N = format: functional, cell-based, Homo sapiens; settings: Homo sapiens, LS-411N
MC116 = format: functional, cell-based; settings: Homo sapiens;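 note: growth inhibition of MC116 cells, read out with a cell viability assay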
Description: SANGER: Inhibition of human MC116 cell growth in a cell viability assay.

MEL-HO = format: functional, cell-based, Homo sapiens; settings: Homo sapiens, MEL-HO
Description: SANGER: Inhibition of human MEL-HO cell growth in a cell viability assay.

MFM-223 = format: functional, cell-based, Homo sapiens; settings: Homo sapiens, MFM-223
Description: SANGER: Inhibition of human MFM-223 cell growth in a cell viability assay.

MG-63 = format: functional, cell-based, Homo sapiens; settings: Homo sapiens, MG-63;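 note: growth inhibition of human MG-63 cells, read out with a cell viability assay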
Description: SANGER: Inhibition of human MG-63 cell growth in a cell viability assay.

NCI-H1581 = format: functional, cell-based, Homo sapiens; settings: Homo sapiens, NCI-H1581;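 note: cell growth inhibition read out by a viability assay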
Description: SANGER: Inhibition of human NCI-H1581 cell growth in a cell viability assay.

NCI-H727 = format: functional, cell-based, Homo sapiens; settings: Homo sapiens, NCI-H727;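 note: growth inhibition of human NCI-H727 cells, read out with a cell viability assay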
Description: SANGER: Inhibition of human NCI-H727 cell growth in a cell viability assay.

NTERA-2-cl-D1 = format: functional, cell-based, Homo sapiens; settings: Homo sapiens, NTERA-2-cl-D1;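 note: inhibition of cell growth, measured with a cell viability assay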
Description: SANGER: Inhibition of human NTERA-S-cl-D1 cell growth in a cell viability assay.

OCI-AML2 = format: functional, cell-based; settings: Homo sapiens;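 note: growth inhibition of OCI-AML2 cells, read out with a cell viability assay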
Description: SANGER: Inhibition of human OCI-AML2 cell growth in a cell viability assay.

OMC-1 = format: functional, cell-based, Homo sapiens; settings: Homo sapiens, OMC-1;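 note: growth inhibition of the OMC-1 cell line, measured by a cell viability assay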
Description: SANGER: Inhibition of human OMC-1 cell growth in a cell viability assay.

OVCAR-4 = format: functional, cell-based, Homo sapiens; settings: Homo sapiens, OVCAR-4;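 note: growth inhibition of human OVCAR-4 cells, measured with a cell viability assay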
Description: SANGER: Inhibition of human OVCAR-4 cell growth in a cell viability assay.

RPMI-7951 = format: functional, cell-based, Homo sapiens; settings: Homo sapiens, RPMI-7951
Description: SANGER: Inhibition of human RPMI-7951 cell growth in a cell viability assay.

RT-112 = format: functional, cell-based, Homo sapiens; settings: Homo sapiens, RT-112
SK-NEP-1 = format: functional, cell-based; settings: Homo sapiens;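 note: growth inhibition of human SK-NEP-1 cells, read out by a cell viability assay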
Description: SANGER: Inhibition of human SK-NEP-1 cell growth in a cell viability assay.

SK-OV-3 = format: functional, cell-based, Homo sapiens; settings: Homo sapiens, SK-OV-3;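 note: growth inhibition of SK-OV-3 human cells, read out with a cell viability assay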
Description: SANGER: Inhibition of human SK-OV-3 cell growth in a cell viability assay.

SW1783 = format: functional, cell-based; settings: Homo sapiens;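 note: cell growth inhibition measured with a viability assay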
Description: SANGER: Inhibition of human SW1783 cell growth in a cell viability assay.

697 = format: functional, cell-based; settings: Homo sapiens
Description: SANGER: Inhibition of human 697 cell growth in a cell viability assay.

A204 = format: functional, cell-based, Homo sapiens; settings: Homo sapiens, A204;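 note: growth inhibition of human A204 cells, read out with a cell viability assay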
Description: SANGER: Inhibition of human A204 cell growth in a cell viability assay.

A-375 = format: functional, cell-based, Homo sapiens; settings: Homo sapiens, A-375;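 note: growth inhibition of A375 cells, read out with a cell viability assay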
Description: SANGER: Inhibition of human A375 cell growth in a cell viability assay.

A-431 = format: functional, cell-based, Homo sapiens; settings: Homo sapiens, A-431;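 note: growth inhibition of A-431 cells, determined with a cell viability read-out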
Description: SANGER: Inhibition of human A431 cell growth in a cell viability assay.

BE-13 = format: functional, cell-based; settings: Homo sapiens;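 note: growth inhibition of human BE-13 cells, measured with a cell viability assay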
Description: SANGER: Inhibition of human BE-13 cell growth in a cell viability assay.

BEN = format: functional, cell-based, Homo sapiens; settings: Homo sapiens, BEN;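 note: growth inhibition of the BEN cell line, read out with a cell viability assay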
Description: SANGER: Inhibition of human BEN cell growth in a cell viability assay.

BFTC-905 = format: functional, cell-based, Homo sapiens; settings: Homo sapiens, BFTC-905
Description: SANGER: Inhibition of human BFTC-905 cell growth in a cell viability assay.

CAL-33 = format: functional, cell-based, Homo sapiens; settings: Homo sapiens, CAL-33;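 note: growth inhibition of CAL-33 cells, read out with a cell viability assay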
Description: SANGER: Inhibition of human CAL-33 cell growth in a cell viability assay.

CAL-85-1 = format: functional, cell-based; settings: Homo sapiens;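 note: growth inhibition of human CAL-85-1 cells, read out with a cell viability assay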
TE-10 = format: functional, cell-based, Homo sapiens; settings: Homo sapiens, TE-10;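 note: growth inhibition of TE-10 cells, measured by a cell viability assay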
U-87 MG = format: functional, cell-based, U-87MG ATCC; settings: Homo sapiens;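 note: growth inhibition of the cells measured with a viability assay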
Description: SANGER: Inhibition of human U-87-MG cell growth in a cell viability assay.

UO-31 = format: functional, cell-based; settings: Homo sapiens;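 note: cell viability assay measuring inhibition of cell growth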
Description: SANGER: Inhibition of human U031 cell growth in a cell viability assay.

UACC-257 = format: functional, cell-based, Homo sapiens; settings: Homo sapiens, UACC-257
Description: SANGER: Inhibition of human UACC-257 cell growth in a cell viability assay.

CAMA-1 = format: functional, cell-based, Homo sapiens; settings: Homo sapiens, CAMA-1;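 note: growth inhibition of CAMA-1 cells, read out with a cell viability assay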
Description: SANGER: Inhibition of human CAMA-1 cell growth in a cell viability assay.

SMILES: Cc1ccc(Nc2nccc(N(C)c3ccc4c(C)n(C)nc4c3)n2)cc1S(N)(=O)=O [PAZOPANIB]
- pIC50 (CTV-1): 5.21
- pIC50 (DK-MG): 5.24
- pIC50 (DOK): < 5.10
- pIC50 (G-402): 6.27
- pIC50 (GCT): < 5.10
- pIC50 (H4): 5.60
- pIC50 (HAL-01): < 5.10
- pIC50 (HCC1395): 5.59
- pIC50 (HCC1806): < 5.10
- pIC50 (HH): < 5.10
- pIC50 (HuCCT-1): < 5.10
- pIC50 (HuP-T4): < 5.10
- pIC50 (IA-LM): 5.10
- pIC50 (IST-SL1): < 5.10
- pIC50 (JAR): < 5.10
- pIC50 (KARPAS-299): < 5.10
- pIC50 (KM-H2): < 5.10
- pIC50 (KM12): < 5.10
- pIC50 (KOSC-2): < 5.10
- pIC50 (KS-1): < 5.10
- pIC50 (KU812 cell line): 5.27
- pIC50 (LAMA-84): < 5.10
- pIC50 (LS-411N): < 5.10
- pIC50 (MC116): < 5.10
- pIC50 (MEL-HO): < 5.10
- pIC50 (MFM-223): < 5.10
- pIC50 (MG-63): 6.00
- pIC50 (NCI-H1581): < 5.10
- pIC50 (NCI-H727): 5.27
- pIC50 (NTERA-2-cl-D1): < 5.10
- pIC50 (OCI-AML2): < 5.10
- pIC50 (OMC-1): < 5.10
- pIC50 (OVCAR-4): < 5.10
- pIC50 (RPMI-7951): < 5.10
- pIC50 (RT-112): 5.96
- pIC50 (SK-NEP-1): < 5.10
- pIC50 (SK-OV-3): < 5.10
- pIC50 (SW1783): < 5.10
- pIC50 697: < 5.10
- pIC50 (A204): 6.96
- pIC50 (A-375): < 5.10
- pIC50 (A-431): < 5.10
- pIC50 (BE-13): < 5.10
- pIC50 (BEN): < 5.10
- pIC50 (BFTC-905): < 5.10
- pIC50 (CAL-33): < 5.10
- pIC50 (CAL-85-1): < 5.10
- pIC50 (TE-10): < 5.10
- pIC50 (U-87 MG): < 5.10
- pIC50 (UO-31): < 5.10
- pIC50 (UACC-257): < 5.10
- pIC50 (CAMA-1): < 5.10

SMILES: CN(c1ncccc1CNc1nc(Nc2ccc3c(c2)CC(=O)N3)ncc1C(F)(F)F)S(C)(=O)=O [PF-00562271]
- pIC50 (CTV-1): < 5.59
- pIC50 (DK-MG): < 5.59
- pIC50 (DOK): < 5.59
- pIC50 (G-402): < 5.59
- pIC50 (GCT): < 5.59
- pIC50 (H4): < 5.59
- pIC50 (HAL-01): < 5.59
- pIC50 (HCC1395): < 5.59
- pIC50 (HCC1806): < 5.59
- pIC50 (HH): < 5.59
- pIC50 (HuCCT-1): < 5.59
- pIC50 (HuP-T4): < 5.59
- pIC50 (IA-LM): < 5.59
- pIC50 (IST-SL1): < 5.59
- pIC50 (JAR): < 5.59
- pIC50 (KARPAS-299): < 5.59
- pIC50 (KM-H2): < 5.59
- pIC50 (KM12): 6.41
- pIC50 (KOSC-2): < 5.59
- pIC50 (KS-1): < 5.59
- pIC50 (KU812 cell line): < 5.59
- pIC50 (LAMA-84): < 5.59
- pIC50 (LS-411N): < 5.59
- pIC50 (MC116): < 5.59
- pIC50 (MEL-HO): 5.70
- pIC50 (MFM-223): < 5.59
- pIC50 (MG-63): 6.09
- pIC50 (NCI-H1581): < 5.59
- pIC50 (NCI-H727): < 5.59
- pIC50 (NTERA-2-cl-D1): < 5.59
- pIC50 (OCI-AML2): < 5.59
- pIC50 (OMC-1): < 5.59
- pIC50 (OVCAR-4): < 5.59
- pIC50 (RPMI-7951): < 5.59
- pIC50 (RT-112): 6.01
- pIC50 (SK-NEP-1): < 5.59
- pIC50 (SK-OV-3): < 5.59
- pIC50 (SW1783): < 5.59
- pIC50 697: < 5.59
- pIC50 (A204): < 5.59
- pIC50 (A-375): < 5.59
- pIC50 (A-431): < 5.59
- pIC50 (BE-13): < 5.59
- pIC50 (BEN): < 5.59
- pIC50 (BFTC-905): < 5.59
- pIC50 (CAL-33): 5.95
- pIC50 (CAL-85-1): 5.74
- pIC50 (TE-10): < 5.59
- pIC50 (U-87 MG): < 5.59
- pIC50 (UO-31): < 5.59
- pIC50 (UACC-257): < 5.59
- pIC50 (CAMA-1): < 5.59

From ChEMBL document CHEMBL1201861, “Genomics of Drug Sensitity in Cancer screening data, Wellcome Trust Sanger Institute”
